# Assay results from patent US9062071B2, “Substituted piperidines as HDM2 inhibitors” (Merck Sharp & Dohme Corp, priority 2011, dated 2015).
# Biological target: HDM2 protein (Homo sapiens, UniProt Q00987)
# Assay: fluorescence polarization screening assay (FP IC50)
# Assay type: binding
# Conditions: class symbols
# Protocol: The compounds were evaluated to determine activity at the HDM2 protein by known methods such as the fluorescence polarization screening assay that measures the inhibitory concentration that achieves 50% of maximal activity (FP IC50) and the dissociation constant for inhibitor binding (FP Ki). [Zhang et al., J. Analytical Biochemistry 331: 138-146 (2004)].
# Sequence of HDM2 protein (Q00987 whole entry): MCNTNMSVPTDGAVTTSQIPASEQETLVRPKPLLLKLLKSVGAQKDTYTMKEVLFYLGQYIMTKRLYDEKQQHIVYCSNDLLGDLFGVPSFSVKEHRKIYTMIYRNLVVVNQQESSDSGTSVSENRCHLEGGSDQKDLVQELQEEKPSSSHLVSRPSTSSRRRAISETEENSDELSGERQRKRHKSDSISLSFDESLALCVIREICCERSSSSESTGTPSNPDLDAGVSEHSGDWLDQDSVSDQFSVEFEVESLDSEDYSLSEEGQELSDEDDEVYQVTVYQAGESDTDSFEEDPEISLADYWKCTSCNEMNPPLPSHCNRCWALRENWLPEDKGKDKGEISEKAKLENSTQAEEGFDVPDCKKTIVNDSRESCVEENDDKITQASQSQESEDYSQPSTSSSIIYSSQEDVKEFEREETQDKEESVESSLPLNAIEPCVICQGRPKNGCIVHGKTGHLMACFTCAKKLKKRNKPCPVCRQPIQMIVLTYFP
row,Structure (SMILES),IC50 [nM]
1,"CCC[C@H]1N(C(=O)c2ncccc2C(F)(F)F)CCC[C@@]1(Oc1csc(C(F)(F)F)c1)C(=O)N1CCc2cc(Cl)ccc2C1CN1CCCC1 (stereo partly drawn) [Compound A15, 6-chloro-2-{[(2R,3S)-2-propyl-1-{[3-(trifluoromethyl)pyridin-2-yl]carbonyl}-3-{[5-(trifluoromethyl)thiophen-3-yl]oxy}piperidin-3-yl]carbonyl}-1-(pyrrolidin-1-ylmethyl)-1,2,3,4-tetrahydroisoquinoline]",101 to 20000
2,"COCC1c2ccc(Cl)cc2CCN1C(=O)[C@]1(Oc2csc(C(F)(F)F)c2)CCCN(C(=O)c2ncccc2C(F)(F)F)[C@@H]1CCNC1CCOCC1 (stereo partly drawn) [Compound A22, N-{2-[(2R,3S)-3-{[6-chloro-1-(methoxymethyl)-3,4-dihydroisoquinolin-2(1H)-yl]carbonyl}-1-{[3-(trifluoromethyl)pyridin-2-yl]carbonyl}-3-{[5-(trifluoromethyl)thiophen-3-yl]oxy}piperidin-2-yl]ethyl}tetrahydro-2H-pyran-4-amine]",1 to 100
3,"CCC[C@H]1N(C(=O)c2ncccc2C(F)(F)F)CCC[C@@]1(Oc1csc(C(F)(F)F)c1)C(=O)N1CCc2sc(Cl)cc2C1CCC(=O)O (stereo partly drawn) [Compound A23, 3-(2-chloro-5-{[(2R,3S)-2-propyl-1-{[3-(trifluoromethyl)pyridin-2-yl]carbonyl}-3-{[5-(trifluoromethyl)thiophen-3-yl]oxy}piperidin-3-yl]carbonyl}-4,5,6,7-tetrahydrothieno[3,2-c]pyridin-4-yl)propanoic acid]",1 to 100
4,"CCC[C@H]1N(C(=O)c2ncccc2C(F)(F)F)CCC[C@@]1(Oc1csc(C(F)(F)F)c1)C(=O)N1CCc2sc(Cl)cc2C1CCC(N)=O (stereo partly drawn) [Compound A24, 3-(2-chloro-5-{[(2R,3S)-2-propyl-1-{[3-(trifluoromethyl)pyridin-2-yl]carbonyl}-3-{[5-(trifluoromethyl)thiophen-3-yl]oxy}piperidin-3-yl]carbonyl}-4,5,6,7-tetrahydrothieno[3,2-c]pyridin-4-yl]propanamide]",101 to 20000
5,"CCC[C@H]1N(C(=O)c2ncccc2C(F)(F)F)CCC[C@@]1(Oc1csc(C(F)(F)F)c1)C(=O)N1CCc2sc(Cl)cc2C1CC(C)(C)C(=O)O (stereo partly drawn) [Compound A25, 3-(2-chloro-5-{[(2R,3S)-2-propyl-1-{[3-(trifluoromethyl)pyridin-2-yl]carbonyl}-3-{[5-(trifluoromethyl)thiophen-3-yl]oxy}piperidin-3-yl]carbonyl}-4,5,6,7-tetrahydrothieno[3,2-c]pyridin-4-yl)-2,2-dimethylpropanoic acid]",1 to 100
6,"CCC[C@H]1N(C(=O)c2ncccc2C(F)(F)F)CCC[C@@]1(Oc1csc(C(F)(F)F)c1)C(=O)N1CCc2sc(Cl)cc2C1CC(C)(C)C(=O)O (stereo partly drawn) [Compound A26, 3-(2-chloro-5-{[(2R,3S)-2-propyl-1-{[3-(trifluoromethyl)pyridin-2-yl]carbonyl}-3-{[5-(trifluoromethyl)thiophen-3-yl]oxy}piperidin-3-yl]carbonyl}-4,5,6,7-tetrahydrothieno[3,2-c]pyridin-4-yl)-2,2-dimethylpropanoic acid]",1 to 100
7,"CCC[C@H]1N(C(=O)c2ncccc2C(F)(F)F)CCC[C@@]1(Oc1csc(C(F)(F)F)c1)C(=O)N1CCc2sc(Cl)cc2C1CCC(=O)NC (stereo partly drawn) [Compound A27, 3-(2-chloro-5-{[(2R,3S)-2-propyl-1-{[3-(trifluoromethyl)pyridin-2-yl]carbonyl}-3-{[5-(trifluoromethyl)thiophen-3-yl]oxy}piperidin-3-yl]carbonyl}-4,5,6,7-tetrahydrothieno[3,2-c]pyridin-4-yl)-N-methylpropanamide]",101 to 20000

# Other lines, results leading:
row,IC50 [nM],Structure (SMILES)
1,1 to 100,"CCC[C@H]1N(C(=O)c2ncccc2C(F)(F)F)CCC[C@@]1(Oc1csc(C(F)(F)F)c1)C(=O)N1CCc2sc(Cl)cc2C1C(=O)O (stereo partly drawn) [Compound A14, 2-chloro-5-{[(2R,3S)-2-propyl-1-{[3-(trifluoromethyl)pyridin-2-yl]carbonyl}-3-{[5-(trifluoromethyl)thiophen-3-yl]oxy}piperidin-3-yl]carbonyl}-4,5,6,7-tetrahydrothieno[3,2-c]pyridine-4-carboxylic acid]"
2,1 to 100,"COCC1c2ccc(Cl)cc2CCN1C(=O)[C@]1(Oc2csc(C(F)(F)F)c2)CCCN(C(=O)c2ncccc2C(F)(F)F)[C@@H]1CCN1CCCC1 (stereo partly drawn) [Compound A16, 6-chloro-1-(methoxymethyl)-2-{[(2R,3S)-2-(2-pyrrolidin-1-ylethyl)-1-{[3-(trifluoromethyl)pyridin-2-yl]carbonyl}-3-{[5-(trifluoromethyl)thiophen-3-yl]oxy}piperidin-3-yl]carbonyl}-1,2,3,4-tetrahydroisoquinoline]"
3,1 to 100,"COCC1c2ccc(Cl)cc2CCN1C(=O)[C@]1(Oc2csc(C(F)(F)F)c2)CCCN(C(=O)c2ncccc2C(F)(F)F)[C@@H]1CCN1CCOCC1 (stereo partly drawn) [Compound A17, 6-chloro-1-(methoxymethyl)-2-{[(2R,3S)-2-(2-morpholin-4-ylethyl)-1-{[3-(trifluoromethyl)pyridin-2-yl]carbonyl}-3-{[5-(trifluoromethyl)thiophen-3-yl]oxy}piperidin-3-yl]carbonyl}-1,2,3,4-tetrahydroisoquinoline]"
4,1 to 100,"COCC1c2ccc(Cl)cc2CCN1C(=O)[C@]1(Oc2csc(C(F)(F)F)c2)CCCN(C(=O)c2ncccc2C(F)(F)F)[C@@H]1CC(=O)O (stereo partly drawn) [Compound A18, [(2R,3S)-3-{[6-chloro-1-(methoxymethyl)-3,4-dihydroisoquinolin-2(1H)-yl]carbonyl}-1-{[3-(trifluoromethyl)pyridin-2-yl]carbonyl}-3-{[5-(trifluoromethyl)thiophen-3-yl]oxy}piperidin-2-yl]acetic acid]"
5,1 to 100,"CCC[C@H]1N(C(=O)c2ncccc2C(F)(F)F)CCC[C@@]1(Oc1csc(C(F)(F)F)c1)C(=O)N1CCc2cc(Cl)sc2C1C(=O)O (stereo partly drawn) [Compound A19, 2-chloro-6-{[(2R,3S)-2-propyl-1-{[3-(trifluoromethyl)pyridin-2-yl]carbonyl}-3-{[5-(trifluoromethyl)thiophen-3-yl]oxy}piperidin-3-yl]carbonyl}-4,5,6,7-tetrahydrothieno[2,3-c]pyridine-7-carboxylic acid]"
6,1 to 100,"COCC1c2ccc(Cl)cc2CCN1C(=O)[C@]1(Oc2csc(C(F)(F)F)c2)CCCN(C(=O)c2ncccc2C(F)(F)F)[C@@H]1CCN1CCC(CCO)CC1 (stereo partly drawn) [Compound A20, 2-(1-{2-[(2R,3S)-3-{[6-chloro-1-(methoxymethyl)-3,4-dihydroisoquinolin-2(1H)-yl]carbonyl}-1-{[3-(trifluoromethyl)pyridin-2-yl]carbonyl}-3-{[5-(trifluoromethyl)thiophen-3-yl]oxy}piperidin-2-yl]ethyl}piperidin-4-yl)ethanol]"
7,1 to 100,"COCCN1CCN(CC[C@H]2N(C(=O)c3ncccc3C(F)(F)F)CCC[C@@]2(Oc2csc(C(F)(F)F)c2)C(=O)N2CCc3cc(Cl)ccc3C2COC)CC1 (stereo partly drawn) [Compound A21, 6-chloro-2-{[(2R,3S)-2-{2-[4-(2-methoxyethyl)piperazin-1-yl]ethyl}-1-{[3-(trifluoromethyl)pyridin-2-yl]carbonyl}-3-{[5-(trifluoromethyl)thiophen-3-yl]oxy}piperidin-3-yl]carbonyl}-1-(methoxymethyl)-1,2,3,4-tetrahydroisoquinoline]"
